Patent US6358885B1, “Substituted phenylheterocyclic herbicides” (Mississippi State University, priority 1992, dated 2002)

How the values were obtained:
bedstraw [1] = assay: Test C preemergence/postemergence greenhouse plant response rating 0 to 100; assay type: in vivo, Galium aparine; settings: POSTEMERGENCE
Excerpt: (§1) The compounds evaluated in this test were formulated in a non-phytoxic solvent and applied to the soil surface before plant seedlings emerged (preemergence application), to water that covered the soil surface (flood application), and to plants that were in the one-to-four leaf stage (postemergence application). A sandy loam soil was used for the preemergence and postemergence tests, while a silt loam soil was used in the flood test. Water depth was approximately 2.5 cm for the flood test and was maintained at this level for the duration of the test. Plant species in the preemergence and postemergence tests consisted of barley (Hordeum vulgare), bedstraw (Galium aparine), blackgrass (Alopecurus myosuroides), chickweed (Stellaria media), corn (Zea mays), cotton (Gossypium hirsutum), crabgrass (Digitaria sanguinalis), downy brome (Bromus tectorum), giant foxtail (Setaria faberii), lambsquarters (Chenopodium album), morningglory (Ipomoea hederacea), pigweed ([…]), rape (Brassica napus), ryegrass (Lolium multiflorum), sorghum (Sorghum bicolor), soybean (Glycine max), speedwell (Veronica persica), sugar beet (Beta vulgaris), velvetleaf (Abutilon theophrasti), wheat (Triticum aestivum), wild buckwheat (Polygonum convolvulus), and wild oat (Avena fatua). All plant species were planted one day before application of the compound for the preemergence portion-of this test. Plantings of these species were adjusted to produce plants of appropriate size for the post-emergence portion of the test. […] All plant species were grown using normal greenhouse practices. Visual evaluations of injury expressed on treated plants, when compared to untreated controls, were recorded approximately fourteen to twenty one days after application of the test compound. […] A dash (-) response means no test result.

pigweed = assay: as above; assay type: in vivo, Amaranthusretroflexus; settings: POSTEMERGENCE
Excerpt: as §1

bedstraw [2] = assay: Test B preemergence/postemergence greenhouse plant response rating 0 to 10; assay type: in vivo, Galium aparine; settings: POSTEMERGENCE, 0 to 10 scale
Procedure, shortened: (§2)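 Test chemicals, dissolved in a non-phytotoxic solvent, were applied to soil at planting and, at the same time, over foliage of seedlings at the one to four leaf stage.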

wild buckwheat = assay: Test C preemergence/postemergence greenhouse plant response rating 0 to 100; assay type: in vivo, Polygonum convolvulus; settings: POSTEMERGENCE
Excerpt: as §1

sugar beet = assay: as above; assay type: in vivo, Beta vulgaris; settings: POSTEMERGENCE
Excerpt: as §1

blackgrass [3] = assay: Test B preemergence/postemergence greenhouse plant response rating 0 to 10; assay type: in vivo, Alopecurus myosuroides; settings: 0 to 10 scale
Procedure, shortened: as §2

blackgrass [4] = assay: Test C preemergence/postemergence greenhouse plant response rating 0 to 100; assay type: in vivo, Alopecurus myosuroides; settings: POSTEMERGENCE
Excerpt: as §1

rape = assay: Test B preemergence/postemergence greenhouse plant response rating 0 to 10; assay type: in vivo, Brassica napus; settings: 0 to 10 scale
Procedure, shortened: as §2

ryegrass = assay: Test C preemergence/postemergence greenhouse plant response rating 0 to 100; assay type: in vivo, Lolium multiflorum; settings: POSTEMERGENCE
Excerpt: as §1

cotton = assay: Test B preemergence/postemergence greenhouse plant response rating 0 to 10; assay type: in vivo, Gossypium hirsutum; settings: 0 to 10 scale
Procedure, shortened: as §2

sorghum [5] = assay: Test C preemergence/postemergence greenhouse plant response rating 0 to 100; assay type: in vivo, Sorghum bicolor; settings: POSTEMERGENCE
Excerpt: as §1

duck salad = assay: Test C flood test plant response rating 0 to 100; assay type: in vivo, Heteranthera limosa
Excerpt: as §1

sorghum [6] = assay: Test B preemergence/postemergence greenhouse plant response rating 0 to 10; assay type: in vivo, Sorghum bicolor; settings: 0 to 10 scale
Procedure, shortened: as §2

barley [7] = assay: Test C preemergence/postemergence greenhouse plant response rating 0 to 100; assay type: in vivo, Hordeum vulgare; settings: POSTEMERGENCE
Excerpt: as §1

wheat = assay: Test B preemergence/postemergence greenhouse plant response rating 0 to 10; assay type: in vivo, Triticum aestivum; settings: 0 to 10 scale
Procedure, shortened: as §2

barley [8] = assay: as above; assay type: in vivo, Hordeum vulgare; settings: 0 to 10 scale
Procedure, shortened: as §2

cheatgrass = assay: as above; assay type: in vivo, Bromus secalinus; settings: 0 to 10 scale
Procedure, shortened: as §2

rice = assay: as above; assay type: in vivo, Oryza sativa; settings: 0 to 10 scale
Procedure, shortened: as §2

C=CCN1C(=O)COc2cc(F)c(-c3nn4c(c3Cl)CCCC4)cc21 [Compound 33]
Plant response rating, Bedstraw (bedstraw [1]; 62 g/ha, 0 to 100 scale): 100
Plant response rating (0 to 100), Bedstraw (bedstraw [1]; Rate 1 g/ha): 80
Plant response rating (0 to 100), Bedstraw (bedstraw [1]; Rate 4 g/ha): 90
Plant response rating (0 to 100), Bedstraw (bedstraw [1]; Rate 16 g/ha): 100
Plant response rating Pigweed (pigweed; 62 g/ha, 0 to 100 scale): 100
Plant response rating (0 to 100), Pigweed (pigweed; Rate 1 g/ha): 100
Plant response rating (0 to 100), Pigweed (pigweed; Rate 4 g/ha): 100
Plant response rating (0 to 100), Pigweed (pigweed; Rate 16 g/ha): 100
Plant response rating, Bedstraw (bedstraw [2]; Rate 10 g/ha): 8
Plant response rating, Bedstraw (bedstraw [2]; Rate 50 g/ha): 9
Plant response rating, Wild buckwheat (wild buckwheat; 62 g/ha, 0 to 100 scale): 100
Plant response rating (0 to 100), Wild buckwheat (wild buckwheat; Rate 1 g/ha): 80
Plant response rating (0 to 100), Wild buckwheat (wild buckwheat; Rate 4 g/ha): 90
Plant response rating, Sugar beet (sugar beet; 62 g/ha, 0 to 100 scale): 100
Plant response rating (0 to 100), Sugar beet (sugar beet; Rate 1 g/ha): 100
Plant response rating (0 to 100), Sugar beet (sugar beet; Rate 4 g/ha): 100
Plant response rating (0 to 100), Sugar beet (sugar beet; Rate 16 g/ha): 100
Plant response rating, Blackgrass (blackgrass [3]; POSTEMERGENCE, Rate 10 g/ha): 4
Plant response rating, Blackgrass (blackgrass [3]; POSTEMERGENCE, Rate 50 g/ha): 5
Plant response rating, Blackgrass (blackgrass [3]; PREEMERGENCE, Rate 10 g/ha): 3
Plant response rating, Blackgrass (blackgrass [3]; PREEMERGENCE, Rate 50 g/ha): 5
Plant response rating, Blackgrass (blackgrass [4]; 62 g/ha, 0 to 100 scale): 60
Plant response rating (0 to 100), Blackgrass (blackgrass [4]; Rate 1 g/ha): 30
Plant response rating (0 to 100), Blackgrass (blackgrass [4]; Rate 4 g/ha): 50
Plant response rating (0 to 100), Blackgrass (blackgrass [4]; Rate 16 g/ha): 50
Plant response rating, Rape (rape; POSTEMERGENCE, Rate 10 g/ha): 10
Plant response rating, Rape (rape; POSTEMERGENCE, Rate 50 g/ha): 10
Plant response rating, Rape (rape; PREEMERGENCE, Rate 50 g/ha): 5
Plant response rating Ryegrass (ryegrass; 62 g/ha, 0 to 100 scale): 60
Plant response rating (0 to 100), Ryegrass (ryegrass; Rate 1 g/ha): 30
Plant response rating (0 to 100), Ryegrass (ryegrass; Rate 4 g/ha): 40
Plant response rating (0 to 100), Ryegrass (ryegrass; Rate 16 g/ha): 50
Plant response rating, Cotton (cotton; POSTEMERGENCE, Rate 10 g/ha): 10
Plant response rating, Cotton (cotton; POSTEMERGENCE, Rate 50 g/ha): 10
Plant response rating, Cotton (cotton; PREEMERGENCE, Rate 10 g/ha): 0
Plant response rating, Cotton (cotton; PREEMERGENCE, Rate 50 g/ha): 0
Plant response rating, Sorghum (sorghum [5]; 62 g/ha, 0 to 100 scale): 40
Plant response rating (0 to 100), Sorghum (sorghum [5]; Rate 1 g/ha): 0
Plant response rating (0 to 100), Sorghum (sorghum [5]; Rate 4 g/ha): 20
Plant response rating (0 to 100), Sorghum (sorghum [5]; Rate 16 g/ha): 20
Plant response rating (0 to 100), Duck salad (duck salad; POSTEMERGENCE section, flood test, Rate 1 g/ha): 0
Plant response rating (0 to 100), Duck salad (duck salad; POSTEMERGENCE section, flood test, Rate 4 g/ha): 0
Plant response rating (0 to 100), Duck salad (duck salad; Rate 16 g/ha, under POSTEMERGENCE head (flood test species)): 65
Plant response rating Duck salad (duck salad; flood test species listed under POSTEMERGENCE, 62 g/ha, 0 to 100 scale): 80
Plant response rating, Sorghum (sorghum [6]; POSTEMERGENCE, Rate 10 g/ha): 6
Plant response rating, Sorghum (sorghum [6]; POSTEMERGENCE, Rate 50 g/ha): 6
Plant response rating, Sorghum (sorghum [6]; PREEMERGENCE, Rate 50 g/ha): 0
Plant response rating Barley Igri (barley [7]; 62 g/ha, 0 to 100 scale): 60
Plant response rating (0 to 100), Barley Igri (barley [7]; Rate 1 g/ha): 20
Plant response rating (0 to 100), Barley Igri (barley [7]; Rate 4 g/ha): 40
Plant response rating (0 to 100), Barley Igri (barley [7]; Rate 16 g/ha): 50
Plant response rating, Wheat (wheat; POSTEMERGENCE, Rate 10 g/ha): 3
Plant response rating, Wheat (wheat; POSTEMERGENCE, Rate 50 g/ha): 5
Plant response rating, Wheat (wheat; PREEMERGENCE, Rate 50 g/ha): 2
Plant response rating, Barley (barley [8]; POSTEMERGENCE, Rate 10 g/ha): 4
Plant response rating, Barley (barley [8]; POSTEMERGENCE, Rate 50 g/ha): 4
Plant response rating, Barley (barley [8]; PREEMERGENCE, Rate 10 g/ha): 0
Plant response rating, Barley (barley [8]; PREEMERGENCE, Rate 50 g/ha): 1
Plant response rating, Cheatgrass (cheatgrass; POSTEMERGENCE, Rate 10 g/ha): 4
Plant response rating, Cheatgrass (cheatgrass; POSTEMERGENCE, Rate 50 g/ha): 4
Plant response rating, Cheatgrass (cheatgrass; PREEMERGENCE, Rate 10 g/ha): 3
Plant response rating, Cheatgrass (cheatgrass; PREEMERGENCE, Rate 50 g/ha): 6
Plant response rating, Rice (rice; POSTEMERGENCE, Rate 10 g/ha): 6
Plant response rating, Rice (rice; POSTEMERGENCE, Rate 50 g/ha): 7
Plant response rating, Rice (rice; PREEMERGENCE, Rate 50 g/ha): 3
